Among the data in PubChem BioAssay AID1919013 (Molecular Pharmacology Branch, DTP, NCI, 2023) are viability, T/C and IC50 values, retold here.

The test system of the experiment is LG0703-F498-PDC complex spheroid growth. Kind of experiment: Anticancer human tumor LG0703-F498-PDC patient-derived lung adenocarcinoma cell line growth inhibition [AhR]. The note with it: for viability, T/C: stronger effect = lower value. Put shortly: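 Complex tumor spheroids co-cultured with HUVEC and human MSC stroma; AhR antagonists tested in combination with standard-of-care and investigational agents. Top concentration at or near clinical Cmax (else 10 microM), half-log dilutions; growth expressed as percent test/control.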

Where “and” joins values, the source holds several entries; their conditions need not be identical. Equal entries are not always repeated.
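Also: luminescence taken as a proxy for viable cell amount.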
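For viability, T/C in this document: percent of DMSO vehicle control where 100% means growth equal to vehicle.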

Broadly, the viability, T/C is the result in the treated group divided by that in the control group, in per cent. The term IC50 denotes the concentration that gives 50% inhibition. For `Cc1ccccc1N=Nc1ccc(NC(=O)c2ccnn2C)c(C)c1`, the viability, T/C by setting is: (compound 1 µM) 90.5% [middle of 20 runs]; (compound 3.16 µM) 85.7% [middle of 20 runs]. Moreover, where the note is “compound alone, run of 06/14/2022”, the IC50 is above 10 µM.
Regarding `CC1COCCN1c1cc(-c2ccnn2C)c2ccnc(-c3ccn[nH]3)c2n1` (configuration not stated), the viability, T/C is 97.6% and 98.2% and 105% (compound 0.00316 µM); 102% and 105% and 98.7% (compound 0.01 µM); 106% and 82.9% and 90.9% (compound 0.0316 µM); 86.3% and 83.7% and 85% (compound 0.1 µM); 62.1% and 66.7% and 69.9% (compound 0.316 µM); 40.7% and 43.3% and 42% (compound 1 µM). Moreover, the IC50 (curve of compound) is 0.597 µM and 0.726 µM and 0.723 µM.
As to `Cn1ncnc1C1c2n[nH]c(=O)c3cc(F)cc(c23)NC1c1ccc(F)cc1` (configuration not stated), the viability, T/C reads like this: (compound 0.000316 µM) 97.7% and 91.1% and 110%; (compound 0.001 µM) 106% and 103% and 98.6%; (compound 0.00316 µM) 96.4% and 111% and 102%; (compound 0.01 µM) 94% and 97.9% and 89.2%; (compound 0.0316 µM) 107% and 106% and 95.7%; (compound 0.1 µM) 86.6% and 102% and 90%. Moreover, for the setting “curve of compound”, the IC50 is above 0.1 µM.
